These are literature values, as cited in patent US20230200430A1, “ORAL PRODUCTS WITH HIGH-DENSITY LOAD” (NICOVENTURES TRADING LIMITED, priority 2021, published 2023).

For the series the following is noted: qualitative statement.
For `C=C(C)[C@@H]1CCC(C)=C[C@H]1c1c(O)cc(CCCCC)cc1O` [CBD, cannabidiol, reference compound], the “solubility in water / aqueous environment” value is given as “insoluble in an aqueous environment”.

Turning to `CC(/C=C/C=C(C)/C=C/C(=O)O)=C\C=C\C=C(C)\C=C\C=C(C)\C=C\C(=O)O` (stereo in doubt) [norbixin, (2E,4E,6E,8E,10E,12E,14E,16E,18E)-4,8,13,17-tetramethylicosa-2,4,6,8,10,12,14,16,18-nonaenedioic acid], the “solubility in water / aqueous environment” value is “water soluble”.

`COC(=O)/C=C/C(C)=C\C=C\C(C)=C\C=C\C=C(C)\C=C\C=C(C)\C=C\C(=O)O` [Bixin]: the “solubility in water / aqueous environment” value is recorded as “insoluble in water”.
